This is an account of results in PubChem BioAssay (NCI).

Among the test systems are COLO 205 colon; HOP-92 NSCLC; OVCAR-3 ovarian; RXF 393 renal; SF-295 CNS; SW-620 colon; UO-31 renal; MDA-N.
Common to all, as to experiment: NCI anticancer screen, dose series, 48 h

Structures are written as SMILES.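 A five-concentration, 48-hour dose response in 96-well plates underlies each endpoint, interpolated linearly between surrounding concentrations. GI50 = concentration required for 50% inhibition of growth. TGI: concentration producing complete growth inhibition.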

For the molecule `O=C1c2c(c3c4cc(F)ccc4oc3c3[nH]c4ccccc4c23)C(=O)N1O`, the GI50 with COLO 205 colon was 4.15 µM; in the experiment on HOP-92 NSCLC, 1.44 µM; in the experiment with OVCAR-3 ovarian, 2.53 µM; in the experiment with RXF 393 renal it was 1.92 µM; in the experiment on SF-295 CNS, 2.33 µM; in the experiment on SW-620 colon, 1.24 µM. Moreover, the TGI with COLO 205 colon is > 100 µM; in the experiment with HOP-92 NSCLC it was 5.15 µM; with OVCAR-3 ovarian, 7.96 µM; with RXF 393 renal, 6.85 µM; in the experiment with SF-295 CNS, 9 µM; in the experiment with SW-620 colon, > 100 µM.

`O=C(Nc1ccccc1C(=O)NCc1ccccc1)/C(=C/c1ccccc1O)NC(=O)c1ccccc1`: the TGI with COLO 205 colon, in the experiment on HOP-92 NSCLC, in the experiment on OVCAR-3 ovarian, in the experiment with RXF 393 renal, in the experiment on SF-295 CNS and in the experiment with SW-620 colon was > 100 µM throughout. In the experiment on UO-31 renal, the TGI was > 100 µM.

As for `CC1=C[P+](c2ccccc2)(c2ccccc2)c2ccccc2O1`, the TGI in the experiment with COLO 205 colon was 2.89 µM; in the experiment on HOP-92 NSCLC it was 9.34 µM; in the experiment on OVCAR-3 ovarian it was 9.4 µM; with RXF 393 renal it was > 100 µM; in the experiment with SF-295 CNS, 38.9 µM; in the experiment with SW-620 colon it was > 100 µM. In the experiment with UO-31 renal, the TGI was > 100 µM.

As to `Nc1cc(C2CCCc3c2[nH]c2ccccc32)ccc1O` (centres undefined), the TGI in the experiment on COLO 205 colon, in the experiment with HOP-92 NSCLC, with OVCAR-3 ovarian, in the experiment with RXF 393 renal, in the experiment on SF-295 CNS and in the experiment with SW-620 colon was > 100 µM in each case. Further, in the experiment on UO-31 renal, the TGI was > 100 µM.

Consider `Cc1[nH]c(=O)nc(N/N=C/c2c3ccccc3c(Cl)c3ccccc23)c1C(=O)Nc1ccc(Cl)cc1`, for which the TGI with MDA-N, in the experiment on OVCAR-3 ovarian, with SW-620 colon and in the experiment with UO-31 renal was > 100 µM throughout.

On to `O=c1cc(NNc2ccccc2)[nH]c(=O)[nH]1`, for which the TGI with COLO 205 colon was 31.8 µM; in the experiment on MDA-N, 35.1 µM; with OVCAR-3 ovarian, 30.9 µM; with SF-295 CNS, > 100 µM.

As for `O=C1C=C(NCCc2ccc(O)c([N+](=O)[O-])c2)C(=O)c2[nH]cnc21`, the TGI in the experiment with COLO 205 colon was > 100 µM; in the experiment with MDA-N, 31.2 µM; in the experiment on OVCAR-3 ovarian, 46.1 µM; in the experiment on SF-295 CNS, 31.1 µM; with SW-620 colon, > 100 µM; in the experiment with UO-31 renal, > 100 µM.

In the case of `N=c1oc2cc(O)ccc2cc1C(=O)Nc1ccccn1`, the TGI is 32.8 µM in the experiment on COLO 205 colon; > 100 µM in the experiment on HOP-92 NSCLC; > 100 µM in the experiment on OVCAR-3 ovarian; 99.7 µM in the experiment with RXF 393 renal; > 100 µM in the experiment with SF-295 CNS; > 100 µM in the experiment with SW-620 colon.

Take `Cc1cn(S(=O)(=O)c2ccccc2)c2c(OCc3ccccc3)cc([N+](=O)[O-])cc12`: the TGI with COLO 205 colon, in the experiment with HOP-92 NSCLC, with OVCAR-3 ovarian, with RXF 393 renal, with SF-295 CNS and in the experiment with SW-620 colon was > 100 µM in each case. The TGI in the experiment with UO-31 renal is > 100 µM.

For `CC(C)CC1c2[nH]c3ccccc3c2C[C@H]2C(=O)NC(Cc3c[nH]c4ccccc34)C(=O)N12` (some centres undefined), the TGI with COLO 205 colon was found to be 34.8 µM; in the experiment with HOP-92 NSCLC, 34.5 µM; with OVCAR-3 ovarian it was 30.5 µM; in the experiment on RXF 393 renal it was 22.5 µM; in the experiment with SF-295 CNS, 43.8 µM; in the experiment with SW-620 colon, 58.5 µM. In addition, the TGI in the experiment with UO-31 renal amounted to 42.9 µM.

On to `CN1C/C(=C\c2cccs2)C2=NN(c3ccccc3)C(c3cccs3)C2C1` (centres undefined), for which the TGI in the experiment on COLO 205 colon was > 100 µM; with MDA-N, 3.99 µM; in the experiment on OVCAR-3 ovarian it was > 21.8 µM; in the experiment on SF-295 CNS, > 80.3 µM; with SW-620 colon, > 100 µM; with UO-31 renal, > 100 µM.

Turning to `C(=N\NC1=NCCCCN1)/c1ccc2ccccc2c1`, the TGI was 31.5 µM in the experiment on COLO 205 colon; 62.7 µM in the experiment with HOP-92 NSCLC; > 100 µM in the experiment with OVCAR-3 ovarian; 60.8 µM with RXF 393 renal; 46.3 µM with SF-295 CNS; 52.4 µM in the experiment on SW-620 colon. Besides, the TGI in the experiment with UO-31 renal was > 100 µM.

On to `O=C(COc1cc(=O)oc2ccccc12)c1ccccc1`, for which the TGI was 33 µM in the experiment with HOP-92 NSCLC; > 100 µM in the experiment with MDA-N; 39.9 µM with OVCAR-3 ovarian; 87.4 µM in the experiment on SF-295 CNS; > 100 µM with SW-620 colon.

As to `O=C1OC(C(O)CO)C(C(O)CO)OC1=O` (centres undefined), the TGI in the experiment with COLO 205 colon, in the experiment with OVCAR-3 ovarian, with RXF 393 renal, in the experiment on SF-295 CNS, in the experiment on SW-620 colon and in the experiment on UO-31 renal was > 10 µM each time.

With `Cc1cc2ncn(CC(=O)O)c2cc1C`, the TGI in the experiment with COLO 205 colon, with HOP-92 NSCLC, in the experiment with OVCAR-3 ovarian, in the experiment on RXF 393 renal, with SF-295 CNS and in the experiment on SW-620 colon was > 100 µM throughout. The TGI with UO-31 renal was > 100 µM.

For the molecule `COP(=O)(OC)C(N)Cc1c[nH]c2ccccc12` (centres undefined), the TGI with COLO 205 colon, in the experiment on MDA-N, in the experiment on OVCAR-3 ovarian, with SF-295 CNS, with SW-620 colon and in the experiment on UO-31 renal was > 100 µM throughout.
